The target of the test is T1, bacteriophage T4 DNA polymerase (Enterobacteria phage T4, UniProt P04415).
T1 construct: made in house
T1 sequence (P04415 1-898): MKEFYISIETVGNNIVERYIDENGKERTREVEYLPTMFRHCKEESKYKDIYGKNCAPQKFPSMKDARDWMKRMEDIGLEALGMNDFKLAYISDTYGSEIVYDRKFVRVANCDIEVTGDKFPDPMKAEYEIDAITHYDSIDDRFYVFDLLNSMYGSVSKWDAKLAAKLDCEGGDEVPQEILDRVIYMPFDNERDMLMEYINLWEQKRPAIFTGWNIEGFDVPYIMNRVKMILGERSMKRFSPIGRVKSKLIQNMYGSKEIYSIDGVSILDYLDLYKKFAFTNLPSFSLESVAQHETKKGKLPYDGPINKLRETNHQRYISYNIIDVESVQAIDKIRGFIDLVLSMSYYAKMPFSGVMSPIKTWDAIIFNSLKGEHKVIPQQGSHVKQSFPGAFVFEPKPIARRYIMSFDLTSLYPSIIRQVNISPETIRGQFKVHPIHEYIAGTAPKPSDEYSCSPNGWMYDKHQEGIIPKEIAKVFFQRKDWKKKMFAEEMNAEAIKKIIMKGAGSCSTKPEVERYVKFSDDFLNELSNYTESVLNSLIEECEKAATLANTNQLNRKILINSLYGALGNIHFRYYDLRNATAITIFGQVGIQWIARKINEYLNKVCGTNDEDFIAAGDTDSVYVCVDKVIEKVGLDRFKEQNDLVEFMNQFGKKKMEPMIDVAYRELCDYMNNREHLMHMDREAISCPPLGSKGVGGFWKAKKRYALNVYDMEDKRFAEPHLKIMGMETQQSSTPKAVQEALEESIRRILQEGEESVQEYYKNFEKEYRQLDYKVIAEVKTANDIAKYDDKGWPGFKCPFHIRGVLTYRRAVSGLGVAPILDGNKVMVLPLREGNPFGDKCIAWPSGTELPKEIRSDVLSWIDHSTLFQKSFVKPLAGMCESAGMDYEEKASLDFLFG
Description: Counter-screen against bacteriophage T4 DNA polymerase. The note with it: DRC-2. The class given is biochemical. In short, it runs like this: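 IC50 values come from dose-response testing of each compound against T4 DNA polymerase. This B-family polymerase was purified in-house and used as the counter-screen.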

Each structure is given as a SMILES string.

Regarding `O=c1[nH]c2ccc([N+](=O)[O-])cc2c(-c2ccccc2)c1Sc1nc2ccccc2o1` [KU0067471], the “% inhibition T4 10'” value by setting is: (concentration 10) 35%; (concentration 20) 35%. Also, the “% inhibition T4 40'” value is reported as 36% (concentration 10), 48% (concentration 40) and 47% (concentration 80). The “% inhibition T4 90'” value runs as follows: (concentration 2.5) 11%; (concentration 20) 36%; (concentration 40) 47%; (concentration 80) 48%. Also, the “% inhibition T4 180'” value reads like this: (concentration 5) 11%; (concentration 80) 47%.

For the origin of these results see publication PMC9090415, “Discovery of small molecule inhibitors of Plasmodium falciparum apicoplast DNA polymerase” (Journal of Enzyme Inhibition and Medicinal Chemistry, 2022).
